Usually IC50 stands for the point on the concentration scale where inhibition reaches its midpoint.

19 molecules from patent publication EP2394998A1, “3-(5-Amino-6-oxo-1,6-dihydropyridazin-3-yl)-biphenyl derivatives as PDE4 inhibitors” (Almirall, S.A., priority 2010, dated 2011) can be followed below.

The assay concerns the target recombinant PDE4 enzyme. Description: PDE4 assay: [3H] cAMP Scintillation Proximity Assay (SPA) of phosphodiesterase activity. The format is biochemical. Particulars: yeast extract of recombinant PDE4 enzyme; 30 nM [3H] cAMP; 1 h at room temperature; pH 7.5. The method, then: Measurement of Phosphodiesterase Activity was done using a [3H] cAMP Scintillation Proximity Assay (SPA) (GE Healthcare). Compounds to be tested were disolved in dimethylsulfoxide (DMSO) at a stock concentration of 1 mM and serial dilutions were prepared in 50% DMSO to determine IC50s.
The reactions were conducted in 96-well plates (Corning, Ref.3604) at room temperature, in 0.1 mL of reaction buffer containing (final concentrations): 50 mM Tris-HCl, pH 7.5, 8.3 mM MgCl2, 1.7 mM EGTA, 30 nM [3H] cAMP (approximately 150000 dpm/well) with or without the inhibitors. The reaction was initiated by adding yeast extract of recombinant PDE4 enzyme.
Plates were shaken for 1 h at room temperature and the incubation was terminated by adding 50 µL (0.5 mg /well) of SPA ytrium silicate beads (RPNQ 0150; GE Healthcare) in the presence of zinc sulfate. Plates were stored overnight in the dark and read on a TRILUX microtiter plate reader (Perkin Elmer).
For `CCn1nc(-c2cccc(-c3cccc(C(=O)NC4CC4)c3)c2)cc(Nc2cccc3ncccc23)c1=O` [Example 13, N-cyclopropyl-3'-[1-ethyl-6-oxo-5-(quinolin-5-ylamino)-1,6-dihydropyridazin-3-yl]biphenyl-3-carboxamide], the concentration for half-maximal inhibition (IC50) is 0.037 nM.

For `CCn1nc(-c2cccc(-c3cccc(C(=O)NCCN(C)C)c3)c2)cc(Nc2cccc3ncccc23)c1=O` [Example 12, N-[2-(dimethylamino)ethyl]-3'-[1-ethyl-6-oxo-5-(quinolin-5-ylamino)-1,6-dihydropyridazin-3-yl]biphenyl-3-carboxamide], the IC50 is 0.125 nM.

Take `CCn1nc(-c2cccc(-c3cc(C(=O)NCCCN4CCC[C@H]4COC)cc(C(=O)NC4CC4)c3)c2)cc(Nc2cccc3ncccc23)c1=O` [Example 62, N-cyclopropyl-3'-[1-ethyl-6-oxo-5-(quinolin-5-ylamino)-1,6-dihydropyridazin-3-yl]-N'-{3-[(2S)-2-(methoxymethyl)pyrrolidin-1-yl]propyl}biphenyl-3,5-dicarboxamide]: the IC50 was 0.023 nM.

With `CCn1nc(-c2cccc(-c3cccc(C(=O)NCC(=O)O)c3)c2)cc(Nc2cccc3ncccc23)c1=O` [Example 49, N-({3'-[1-ethyl-6-oxo-5-(quinolin-5-ylamino)-1,6-dihydropyridazin-3-yl]biphenyl-3-yl}carbonyl)glycine], the concentration for half-maximal inhibition (IC50) stood at 0.042 nM.

Regarding `CCn1nc(-c2cccc(-c3ccc(CC(=O)NCCN4CCCCC4)cc3)c2)cc(Nc2cccc3ncccc23)c1=O` [Example 54, 2-{3'-[1-ethyl-6-oxo-5-(quinolin-5-ylamino)-1,6-dihydropyridazin-3-yl]biphenyl-4-yl}-N-(2-piperidin-1-ylethyl)acetamide], the IC50 was 0.09 nM.

Turning to `CCn1nc(-c2cccc(-c3cccc(C(=O)NCC(N)=O)c3)c2)cc(Nc2cccc3ncccc23)c1=O` [Example 48, N-(2-Amino-2-oxoethyl)-3'-(1-ethyl-6-oxo-5-(quinolin-5-ylamino)-1,6-dihydropyridazin-3-yl)biphenyl-3-carboxamide], the half-maximal inhibitory concentration (IC50) is 0.041 nM.

As to `CCn1nc(-c2cccc(-c3cccc(C(=O)NCCCCCCCN(C)CCO)c3)c2)cc(Nc2cccc3ncccc23)c1=O` [Example 29, 3'-[1-ethyl-6-oxo-5-(quinolin-5-ylamino)-1,6-dihydropyridazin-3-yl]-N-{7-[(2-hydroxyethyl)(methyl)amino]heptyl}biphenyl-3-carboxamide], the concentration for half-maximal inhibition (IC50) came to 0.025 nM.

With `CCn1nc(-c2cccc(-c3cccc(C(=O)NCCN4CCCCC4)c3)c2)cc(Nc2cccc3ncccc23)c1=O` [Example 16, 3'-[1-ethyl-6-oxo-5-(quinolin-5-ylamino)-1,6-dihydropyridazin-3-yl]-N-(2-piperidin-1-ylethyl)biphenyl-3-carboxamide], the IC50 stood at 0.045 nM.

As for `CCn1nc(-c2cccc(-c3cccc(C(=O)NCCN4CCOCC4)c3)c2)cc(Nc2cncc3ccccc23)c1=O` [Example 17, 3'-[1-ethyl-5-(isoquinolin-4-ylamino)-6-oxo-1,6-dihydropyridazin-3-yl]-N-(2-morpholin-4-ylethyl)biphenyl-3-carboxamide], the IC50 is 0.043 nM.

In the case of `CCn1nc(-c2cccc(-c3cccc(C(=O)NC4CCC4)c3)c2)cc(Nc2cncc3ccccc23)c1=O` [Example 19, N-cyclobutyl-3'-[1-ethyl-5-(isoquinolin-4-ylamino)-6-oxo-1,6-dihydropyridazin-3-yl]biphenyl-3-carboxamide], the IC50 stood at 0.223 nM.

Consider `CCn1nc(-c2cccc(-c3cccc(C(=O)NC4CCCC4)c3)c2)cc(Nc2cccc3ncccc23)c1=O` [Example 27, N-cyclopentyl-3'-[1-ethyl-6-oxo-5-(quinolin-5-ylamino)-1,6-dihydropyridazin-3-yl]biphenyl-3-carboxamide], for which the 50% inhibitory concentration (IC50) stood at 0.016 nM.

Regarding `CCn1nc(-c2cccc(-c3ccc(C(=O)O)cc3)c2)cc(Nc2cncc3ccccc23)c1=O` [Example 5, 3'-[1-ethyl-5-(isoquinolin-4-ylamino)-6-oxo-1,6-dihydropyridazin-3-yl]biphenyl-4-carboxylic acid], the IC50 was 0.445 nM.

On to `CCn1nc(-c2cccc(-c3cccc(CCC(=O)NC4CC4)c3)c2)cc(Nc2cccc3ncccc23)c1=O` [Example 38, N-cyclopropyl-3-{3'-[1-ethyl-6-oxo-5-(quinolin-5-ylamino)-1,6-dihydropyridazin-3-yl]biphenyl-3-yl}propanamide], for which the IC50 worked out at 0.101 nM.

For `CCn1nc(-c2cccc(-c3ccc(C(=O)NCCN4CCCCC4)cc3)c2)cc(Nc2cncc3ccccc23)c1=O` [Example 22, 3'-[1-ethyl-5-(isoquinolin-4-ylamino)-6-oxo-1,6-dihydropyridazin-3-yl]-N-(2-piperidin-1-ylethyl)biphenyl-4-carboxamide], the IC50 worked out at 0.128 nM.

As to `CCn1nc(-c2cccc(-c3cccc(C(N)=O)c3)c2)cc(Nc2cccc3c2ccc[n+]3[O-])c1=O` [Example 7, 3'-{1-ethyl-5-[(1-oxidoquinolin-5-yl)amino]-6-oxo-1,6-dihydropyridazin-3-yl}biphenyl-3-carboxamide], the IC50 came out at 0.016 nM.

Take `CCn1nc(-c2cccc(-c3cccc(C(=O)NCCN4CCOCC4)c3)c2)cc(Nc2cccc3ncccc23)c1=O` [Example 15, 3'-[1-ethyl-6-oxo-5-(quinolin-5-ylamino)-1,6-dihydropyridazin-3-yl]-N-(2-morpholin-4-ylethyl)biphenyl-3-carboxamide]: the concentration for half-maximal inhibition (IC50) stood at 0.019 nM.

Take `CCn1nc(-c2cccc(-c3cccc(C(=O)NC4CCN(C)CC4)c3)c2)cc(Nc2cncc3ccccc23)c1=O` [Example 36, 3'-[1-ethyl-5-(isoquinolin-4-ylamino)-6-oxo-1,6-dihydropyridazin-3-yl]-N-(1-methylpiperidin-4-yl)biphenyl-3-carboxamide]: the IC50 turned out to be 0.172 nM.

Turning to `CCn1nc(-c2cccc(-c3cccc(C(=O)NC4CCC4)c3)c2)cc(Nc2cccc3ncccc23)c1=O` [Example 25, N-cyclobutyl-3'-[1-ethyl-6-oxo-5-(quinolin-5-ylamino)-1,6-dihydropyridazin-3-yl]biphenyl-3-carboxamide], the IC50 was 0.209 nM.

Turning to `CCn1nc(-c2cccc(-c3cc(C(=O)NCCN4CCC[C@H]4COC)cc(C(=O)NC4CC4)c3)c2)cc(Nc2cccc3ncccc23)c1=O` [Example 63, N-cyclopropyl-3'-[1-ethyl-6-oxo-5-(quinolin-5-ylamino)-1,6-dihydropyridazin-3-yl]-N'-{2-[(2S)-2-(methoxymethyl)pyrrolidin-1-yl]ethyl}biphenyl-3,5-dicarboxamide], the IC50 turned out to be 0.037 nM.
